Source: US7230010B2, “1,2,4-triazole derivative, method for preparing the same, and pharmaceutical composition containing the same” (CJ Corp., priority 2002, dated 2007)

Key:
COX-1 = biological target: T1, COX-1 (Homo sapiens, UniProt P23219); assay: Assay for the COX-1 inhibitory activity using U-937; assay type: cell-based; conditions: 1 μM test compound; PGE2 inhibition in U-937 human lymphoma cells vs DMSO control; read-out: Cyclooxygenase (COX) Inhibition (%) COX-1 (1 μM)
T1 construct: host or cells: U-937 human lymphoma cells
T1 sequence (P23219 24-599): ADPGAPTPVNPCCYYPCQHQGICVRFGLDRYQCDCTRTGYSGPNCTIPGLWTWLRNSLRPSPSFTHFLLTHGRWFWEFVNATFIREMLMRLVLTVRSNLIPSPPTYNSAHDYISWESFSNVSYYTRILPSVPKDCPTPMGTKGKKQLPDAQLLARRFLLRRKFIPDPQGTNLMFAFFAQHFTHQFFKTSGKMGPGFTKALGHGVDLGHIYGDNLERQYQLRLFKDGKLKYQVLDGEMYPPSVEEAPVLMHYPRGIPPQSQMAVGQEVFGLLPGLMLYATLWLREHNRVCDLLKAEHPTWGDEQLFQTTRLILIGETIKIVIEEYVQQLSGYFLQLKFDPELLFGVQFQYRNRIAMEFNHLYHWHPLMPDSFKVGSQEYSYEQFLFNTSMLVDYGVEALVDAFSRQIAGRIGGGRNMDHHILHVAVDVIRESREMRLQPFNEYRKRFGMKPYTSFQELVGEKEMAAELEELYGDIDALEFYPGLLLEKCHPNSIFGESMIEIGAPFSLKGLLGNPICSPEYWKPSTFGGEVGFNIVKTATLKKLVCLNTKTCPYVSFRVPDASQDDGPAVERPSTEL
Method: The collected cells were diluted with HBSS (x1, Hank's balanced salt solution) to a concentration of 1×10^6 cells/ml. 1 ml of the dilute cell solution was placed into each well of 12-well plates. 5 μl of 1 μM solution of a test compound in DMSO and 5 μl of DMSO as a control were added to the wells. The wells were incubated in CO2 incubator at 37° C. for 15 minutes. Separately, 10 mM stock solution of arachidonic acid in ethanol was diluted ten times in ethanol to prepare 1 mM solution of arachidonic acid. Arachidonic acid acts as a substrate. 10 μl of the 1 mM solution of arachidonic acid was added to each well and incubated at CO2 incubator at 37° C. for 30 minutes. The cell solution of each well was placed in a centrifuge test tube and centrifuged at 10,000 rpm at 4° C. for 5 minutes. The concentration of PGE2 in the collected cells and the supernatant was quantified by means of a monoclonal kit (Cayman Chemicals). The percentages of PGE2 inhibition in a group of the test compound-treated cells in relation to a group of the DMSO-treated cells were calculated. Based on the calculated values, the COX-1 inhibitory activities were evaluated.
(§1) % Inhibition=(concentration of PGE2 in test compound-untreated sample−concentration of PGE2 in test compound-treated sample)/(concentration of PGE2 in test compound-untreated sample)×100

COX-2 = biological target: T2, COX-2 (Mus musculus, UniProt Q05769); assay: Assay for the COX-2 inhibitory activity using RAW 264.7 cell line; assay type: cell-based; conditions: RAW264.7; 10 nM test compound; PGE2 in RAW 264.7 cells treated with interferon γ and LPS, 18 hours; read-out: Cyclooxygenase (COX) Inhibition (%) COX-2 (10 nM)
T2 construct: host or cells: RAW 264.7 cells, aspirin-pretreated, induced with interferon γ and LPS
T2 sequence (Q05769 18-604): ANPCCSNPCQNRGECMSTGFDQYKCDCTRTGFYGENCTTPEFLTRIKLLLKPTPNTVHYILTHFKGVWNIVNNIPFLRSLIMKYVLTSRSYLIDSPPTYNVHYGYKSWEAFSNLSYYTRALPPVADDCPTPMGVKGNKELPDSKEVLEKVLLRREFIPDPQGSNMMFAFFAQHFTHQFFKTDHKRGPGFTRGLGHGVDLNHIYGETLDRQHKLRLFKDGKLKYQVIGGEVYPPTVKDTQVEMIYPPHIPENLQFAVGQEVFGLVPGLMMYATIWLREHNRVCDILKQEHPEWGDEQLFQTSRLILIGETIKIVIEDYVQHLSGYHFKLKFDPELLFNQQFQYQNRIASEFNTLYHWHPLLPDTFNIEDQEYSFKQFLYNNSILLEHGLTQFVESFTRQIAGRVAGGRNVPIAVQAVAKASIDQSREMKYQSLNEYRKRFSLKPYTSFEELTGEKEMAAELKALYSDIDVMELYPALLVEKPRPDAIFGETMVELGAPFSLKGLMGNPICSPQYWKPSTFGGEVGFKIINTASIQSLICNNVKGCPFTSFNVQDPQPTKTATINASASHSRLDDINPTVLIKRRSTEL
Method: Each well was treated with 250 μM of aspirin and incubated at 37° C. for 2 hours. After the culture media were replaced with new culture media, the new culture media were treated with a test compound (10 nM) and incubated for 30 minutes. Then, each well was treated with interferon γ (100 units/ml) and lipopolysaccharide (LPS, 100 ng/ml) and incubated for 18 hours. The culture media were transferred to other test tubes. The concentration of PGE2 was quantified by means of the EIA kit (Cayman Chemicals).
as §1

SMILES | inhibition at 1 µM (COX-1) | inhibition at 0.01 µM (COX-2)
CS(=O)(=O)c1ccc(-n2nc(C(F)(F)F)nc2-c2cc3ccccc3o2)cc1 [Example 11, 5-(benzofuran-2-yl)-1-(4-methylsulfonylphenyl)-3-trifluoromethyl-1H-1,2,4-triazole] | 24.3% | 10.6%
CS(=O)(=O)c1ccc(-n2nc(C(F)(F)F)nc2-c2ccc3ccccc3c2)cc1 [Example 10, 1-(4-methylsulfonylphenyl)-5-(naphthalene-2-yl)-3-trifluoromethyl-1H-1,2,4-triazole] | 26.2% | 12.3%
CS(=O)(=O)c1ccc(-n2nc(C(F)(F)F)nc2-c2cc3ccccc3[nH]2)cc1 [Example 12, 2-[2-(4-methylsulfonylphenyl)-5-trifluoromethyl-2H-1,2,4-triazole-3-yl]-1H-indole] | 26.3% | 5.67%
Cn1c(-c2nc(C(F)(F)F)nn2-c2ccc(S(C)(=O)=O)cc2)cc2ccccc21 [Example 13, 1-methyl-2-[2-(4-methylsulfonylphenyl)-5-trifluoromethyl-2H-1,2,4-triazole-3-yl]-1H-indole] | 9.8% | 25.7%

Further lines, results first:

inhibition at 1 µM (COX-1) | inhibition at 0.01 µM (COX-2) | SMILES
32.9% | 16.3% | NS(=O)(=O)c1ccc(-n2nc(C(F)(F)F)nc2-c2ccc3ccccc3c2)cc1 [Example 16, 4-[5-(naphthalene-2-yl)-3-trifluoromethyl-1,2,4-triazole-1-yl]benzenesulfonamide]
21.3% | 6.02% | Cn1cc(-c2nc(C(F)(F)F)nn2-c2ccc(S(C)(=O)=O)cc2)c2ccccc21 [Example 14, 1-methyl-3-[2-(4-methylsulfonylphenyl)-5-trifluoromethyl-2H-1,2,4-triazole-3-yl]-1H-indole]
10.6% | 23.3% | CS(=O)(=O)c1ccc(-n2nc(C(F)(F)F)nc2-c2ccc3ccccc3c2)nc1 [Example 17, 5-methanesulfonyl-2-[5-(naphthalene-2-yl)-3-trifluoromethyl-1,2,4-triazole-1-yl]pyridine]
22.3% | 5.42% | CS(=O)(=O)c1ccc(-n2nc(C(F)(F)F)nc2-c2ccc3ccccc3n2)cc1 [Example 15, 2-[2-(4-methylsulfonylphenyl)-5-trifluoromethyl-2H-1,2,4-triazole-3-yl]quinoline]
